Test results as given in patent US20150038545A1, “HYDROXYPHENYL PYRROLE COMPOUNDS CONTAINING AN HYDROXAMIC ACID AS HDAC INHIBITORS AND MEDICINAL APPLICATIONS THEREOF” (UNIVERSIDAD DEL PAÍS VASCO, priority 2011, published 2015).

Assays:
[1] = target: T1, Human HDAC4 (Homo sapiens, UniProt P56524); experiment: In vitro HDAC4 inhibition, fluorogenic peptide assay; assay type: biochemical; details: for IC50: read-out: IC50 (nM) of enzyme activity HDAC4
T1 construct: Amino acids 627-1085 with N-terminal GST tag, MW=75.2 kDa; GST (N); purchased BioMol, Hamburg, Germany
Experimental: All HDAC assays were performed using acetylated AMC-labeled peptide substrate: • Substrate for isoforms HDAC1, 2, 3, 4, 5, 6, 7, 9, 10, 11 and HeLa nuclear extract assays: Acetylated fluorogenic peptide from p53 residues 379-382 (RHKKAc) (BioMol. Cat. # KI-104). • Substrate for HDAC8 assays: Acetylated fluorogenic peptide from p53 residues 379-382 (RHKAcKAc) (BioMol. Cat. # KI-178).
Enzymes: • HDAC1 assay: 75 nM Human HDAC1 (GenBank Accession No. NM_004964): Full length with C-terminal GST tag, MW=79.9 kDa, expressed by baculovirus expression system in Sf9 cells (BioMol. Cat. # SE-456). • HDAC2 assay: 5 nM Human HDAC2 (GenBank Accession No. Q92769): Full length with C-terminal His tag, MW=60 kDa, expressed by baculovirus expression system in Sf9 cells (BioMol. Cat. # SE-500). • HDAC3 assay: 2.3 nM Human HDAC3/NcoR2 (GenBank Accession No. NM_003883 for HDAC3, GenBank Accession No.NM_006312 for NcoR2): Complex of human HDAC3, full length with C-terminal His tag, MW=49.7 kDa, and human NCOR2, N-terminal GST tag, MW=39 kDa, co-expressed in baculovirus expression system (BioMol. Cat. # SE-507). • HDAC4 assay: 266 nM Human HDAC4 (GenBank Accession No. NM_006037): Amino acids 627-1085 with N-terminal GST tag, MW=75.2 kDa, expressed in baculovirus expression system (BioMol, Hamburg, Germany). • HDAC5 assay: 588 nM Human HDAC5 (GenBank Accession No. NM_001015053): Full length with Nterminal GST tag, MW=150 kDa, expressed by baculovirus expression system in Sf9 cells (BioMol, Hamburg, Germany). • HDAC6 assay: 13 nM Human HDAC6 (GenBank Accession No. BC069243): Full length with N-terminal GST tag, MW=159 kDa, expressed by baculovirus expression system in Sf9 cells (BioMol. Cat. # SE-508). • HDAC7 assay: 962 nM Human HDAC7 (GenBank Accession No. AY302468): Amino acids 518-end with N-terminal GST tag, MW=78 kDa, expressed in baculovirus expression system (BioMol, Hamburg, Germany). • HDAC8 assay: 119 nM Human HDAC8 (GenBank Accession No. NM018486): Full length, MW=42 kDa, expressed in an E. coli expression system (BioMol. […]
The reactions were carried out in a 96-well microplate for fluorometry in a 50 μl reaction volume. […] The reaction was allowed to develop for 45 minutes at 30° C. with 5% CO2; then the fluorescent signal was measured with an excitation wavelength at 360 nm and an emission wavelength at 460 nm in a microplate-reading fluorometer (GeminiXS; Molecular Devices, Sunnyvale, Calif.). […] IC50 was calculated by fitting the experimental data to a dose-response curve. […]

[2] = system: MCF-7; experiment: Cancer cell growth inhibition (CellTiter-Glo), MCF-7; assay type: cell-based, Human; details: Homo sapiens, MCF7; Breast Cancer, MCF-7, 72 h treatment
Experimental: (§1) Cell culture-based assays were used to evaluate the ability of compounds of the invention to inhibit cancer cell growth.
(§2) Cells were obtained from the American Type Culture Collection (ATCC). Cells were cultured at 37° C. with 5% CO2 in the appropriate growth medium (see table below), and harvested respectively during the logarithmic growth period and counted with hemocytometer. The cell viability was examined by trypan blue exclusion. Cell concentrations were adjusted to 5.56×10^4 cells/ml with respective medium.
(§3) Stock solutions of test compounds and positive drugs Doxorubicin (Zhejiang, Haizheng, China), Cisplatin (Nanjing Zhiyao, China) and Mitomycin (Zhejiang, Haizheng, China) were prepared in dimethyl sulphoxide (DMSO) or PBS at 20 mM.
(§4) In order to determine the IC50 for each compound, experiments were carried out in 96-well plates and the cell lines seeded at a density of 5,000 cells/well. […] All treatments were performed in triplicate. 10 μl of drug solution was added to each well and incubated for 72 hours. At the end of the incubation, 100 μl of the CellTiter-Glo Reagent were added to each well and the contents were mixed for 2 munites on an orbital shaker to induce cell lysis. The plate was incubated at room temperature for 10 minutes to stabilize luminiscent signal, and luminiscent was recorded. […] In order to calculate IC50 values, dose-responsive curves were fitted using nonlinear regression model with a sigmoidal dose response.

[3] = system: DU145; experiment: Cancer cell growth inhibition (CellTiter-Glo), DU145; assay type: cell-based, Human; details: Homo sapiens, DU-145; Prostate Cancer, DU145, 72 h treatment
Experimental: as §1, §2, §3, §4

[4] = system: A549; experiment: Cancer cell growth inhibition (CellTiter-Glo), A549; assay type: cell-based, Human; details: Homo sapiens; Lung Cancer, A549, 72 h treatment
Experimental: as §1, §2, §3, §4

[5] = system: MIAPaCa-2; experiment: Cancer cell growth inhibition (CellTiter-Glo), MIAPaCa-2; assay type: cell-based; details: Homo sapiens, MIA PaCa-2; Pancreatic Cancer, MIAPaCa-2, 72 h treatment
Experimental: as §1, §2, §3, §4

[6] = system: HCT-116; experiment: Cancer cell growth inhibition (CellTiter-Glo), HCT-116; assay type: cell-based; details: Homo sapiens; Colorectal Cancer, HCT-116, 72 h treatment
Experimental: as §1, §2, §3, §4

T1 sequence (P56524 627-1084 limits assumed): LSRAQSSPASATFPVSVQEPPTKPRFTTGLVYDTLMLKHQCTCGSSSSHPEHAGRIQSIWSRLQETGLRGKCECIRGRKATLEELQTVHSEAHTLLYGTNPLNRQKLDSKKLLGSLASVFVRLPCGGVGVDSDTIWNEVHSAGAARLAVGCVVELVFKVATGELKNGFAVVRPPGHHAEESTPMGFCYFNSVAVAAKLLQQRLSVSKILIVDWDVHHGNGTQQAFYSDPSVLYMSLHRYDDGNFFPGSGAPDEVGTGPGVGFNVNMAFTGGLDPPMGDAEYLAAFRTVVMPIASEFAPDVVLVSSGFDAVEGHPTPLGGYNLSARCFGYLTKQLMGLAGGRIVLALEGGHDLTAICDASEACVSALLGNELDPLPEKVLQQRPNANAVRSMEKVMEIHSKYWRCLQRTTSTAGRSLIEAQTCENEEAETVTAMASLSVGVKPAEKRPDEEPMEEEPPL

| SMILES | Selectivity against HDAC6 (IC50 HDACx/IC50 HDAC6) HDAC4 ([1]; IC50 HDAC4/IC50 HDAC6) | IC50 [1] | IC50 [2] | IC50 [3] | IC50 [4] | IC50 [5] | IC50 [6] |
| --- | --- | --- | --- | --- | --- | --- | --- |
| COc1ccc(-c2cc(-c3ccccc3)[nH]c2C(=O)NCCCCCC(=O)NO)cc1 [Compound A, N-[6-(hydroxyamino)-6-oxohexyl]-3-(4-methoxyphenyl)-5-phenyl-1H-pyrrole-2-carboxamide, reference compound] | 91.9 | 1840 nM |  |  |  |  |  |
| O=C(CCCCCNC(=O)c1[nH]c(-c2ccc(O)cc2)cc1-c1ccsc1)NO [Example 6, N-(5-(hydroxycarbamoyl)pentyl)-5-(4-hydroxyphenyl)-3-(3-thienyl)-1H-pyrrole-2-carboxamide] |  | 499 nM | 7.07 µM | 1.05 µM | 5.39 µM | 2.49 µM | 0.78 µM |
| O=C(CCCCCNC(=O)c1[nH]c(-c2ccccc2)cc1-c1ccc(O)cc1)NO [Example 1, N-(6-(hydroxyamino)-6-oxohexyl)-3-(4-hydroxyphenyl)-5-phenyl-1H-pyrrole-2-carboxamide] |  |  | 1.75 µM | 0.81 µM | 4.65 µM | 2.75 µM | 0.95 µM |
| O=C(CCCCCNC(=O)c1[nH]c(-c2ccc(O)cc2)cc1-c1ccccc1)NO [Example 2, N-(6-(hydroxyamino)-6-oxohexyl)-5-(4-hydroxyphenyl)-3-phenyl-1H-pyrrole-2-carboxamide] |  |  | 10.9 µM | 1.86 µM | 8.25 µM | 4.08 µM | 1.75 µM |
| O=C(CCCCCNC(=O)c1[nH]c(-c2ccc(O)cc2)cc1-c1ccoc1)NO [Example 5, 3-(3-furyl)-N-(5-(hydroxycarbamoyl)pentyl)-5-(4-hydroxy-phenyl)-1H-pyrrole-2-carboxamide] |  | 143 nM | 9.23 µM | 0.72 µM | 4.35 µM | 1.59 µM | 0.45 µM |
